These molecules were tested against T1, ATPase family AAA domain-containing protein 2 (Homo sapiens, UniProt Q6PL18) (assay: Inhibition of His-6 tagged recombinant human ATAD2 (981 to 1108 residues) expressed in Escherichia coli BL21 (DE3) rosetta cells by HTRF assay).
T1 sequence (Q6PL18 whole entry): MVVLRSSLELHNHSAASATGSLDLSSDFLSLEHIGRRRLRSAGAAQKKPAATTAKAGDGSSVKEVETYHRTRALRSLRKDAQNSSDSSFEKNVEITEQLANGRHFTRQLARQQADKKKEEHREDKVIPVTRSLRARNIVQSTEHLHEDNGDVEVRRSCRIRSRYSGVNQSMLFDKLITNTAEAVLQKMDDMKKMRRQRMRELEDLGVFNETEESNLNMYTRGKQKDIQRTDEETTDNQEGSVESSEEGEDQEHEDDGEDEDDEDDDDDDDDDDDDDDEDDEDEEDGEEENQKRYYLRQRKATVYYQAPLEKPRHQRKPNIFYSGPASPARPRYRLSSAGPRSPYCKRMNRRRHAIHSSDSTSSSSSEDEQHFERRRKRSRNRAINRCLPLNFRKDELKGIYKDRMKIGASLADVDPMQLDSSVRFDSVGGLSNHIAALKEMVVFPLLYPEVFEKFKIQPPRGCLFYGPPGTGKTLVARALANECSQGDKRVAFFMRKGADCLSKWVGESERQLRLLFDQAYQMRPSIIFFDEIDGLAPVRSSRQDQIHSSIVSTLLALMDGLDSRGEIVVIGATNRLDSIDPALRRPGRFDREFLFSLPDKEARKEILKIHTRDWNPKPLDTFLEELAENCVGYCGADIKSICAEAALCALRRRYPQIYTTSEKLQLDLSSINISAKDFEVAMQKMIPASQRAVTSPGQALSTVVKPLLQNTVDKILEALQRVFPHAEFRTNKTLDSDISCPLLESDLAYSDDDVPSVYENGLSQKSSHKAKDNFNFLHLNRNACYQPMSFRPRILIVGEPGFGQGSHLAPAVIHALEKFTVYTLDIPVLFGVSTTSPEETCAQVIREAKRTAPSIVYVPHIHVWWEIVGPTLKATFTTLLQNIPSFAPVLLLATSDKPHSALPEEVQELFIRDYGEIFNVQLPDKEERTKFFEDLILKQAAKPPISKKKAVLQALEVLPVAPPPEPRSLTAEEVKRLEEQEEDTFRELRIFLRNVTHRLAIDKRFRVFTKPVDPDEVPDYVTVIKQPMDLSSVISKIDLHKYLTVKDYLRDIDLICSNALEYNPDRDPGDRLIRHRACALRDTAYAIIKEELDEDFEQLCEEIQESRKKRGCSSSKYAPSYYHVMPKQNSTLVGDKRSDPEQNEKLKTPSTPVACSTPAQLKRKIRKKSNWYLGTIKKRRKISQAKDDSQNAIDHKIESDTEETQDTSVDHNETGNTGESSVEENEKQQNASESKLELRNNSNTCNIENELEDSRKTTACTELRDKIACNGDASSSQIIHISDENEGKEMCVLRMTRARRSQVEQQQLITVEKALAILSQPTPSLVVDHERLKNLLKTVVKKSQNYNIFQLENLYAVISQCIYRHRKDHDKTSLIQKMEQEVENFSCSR
In the case of `Cn1ccc(NCc2ccccn2)c(N)c1=O`, the IC50 is reported as 55 µM.
In the case of `Cn1cccc(NCC2CCNCC2)c1=O`, the IC50 is reported as 543 µM.
With `Cn1cc(Br)cc(N)c1=O` the IC50 was 377 µM.
For `CN1CCNc2c1ccn(C)c2=O`, the IC50 was 822 µM.

Source: ChEMBL document CHEMBL5223137, “Mapping Ligand Interactions of Bromodomains BRD4 and ATAD2 with FragLites and PepLites─Halogenated Probes of Druglike and Peptide-like Molecular Interactions” (J Med Chem, 2022)
